Experimental data taken from patent US20260284020A1, “LATS KINASE INHIBITOR TO TREAT RETINAL DEGENERATION” (Children's Hospital Los Angeles, priority 2023, published 2026).
“Also recorded” adds a separate entry of the source.

Key:
[1] = test system: primary human fetal RPE monolayers; experiment: PAX6 / RPE differentiation marker expression of EdU+ RPE cells after scratch; assay type: cell-based
Method: Ninety-six hours after the scratch, cells were immediately fixed with 4% paraformaldehyde (PFA) in phosphate-buffered saline (PBS) for 15 minutes at room temperature (RT). Cells were washed three times with PBS in between each step. Following fixation, cells were blocked and permeabilized with 3% bovine serum albumin (BSA) and 0.1% Triton X-100 in PBS for 2 hours at RT. Cells were then incubated with an EdU reaction cocktail according to the manufacturer's instructions for 30 minutes at RT, protected from light. Then, cells were incubated overnight with primary antibodies diluted in 3% BSA in PBS. The following morning, cells were incubated with secondary antibodies diluted in 3% BSA in PBS for 2 hours at RT, protected from light. Cells were counterstained with DAPI and then washed. A list of reagents and dilutions used can be found in Table 1.
Within each region, cell proliferation was quantified by dividing EdU/DAPI doubly positive cells by the total number of DAPI+ cells, expressed as a percentage. PAX6 expression was quantified as the ratio of PAX6+ nuclei among EdU/DAPI doubly positive nuclei, also expressed as a percentage.
In order to characterize RPE cell fate in response to Lats kinase inhibition in the context of injury, cells were stained with PAX6 and RPE65.

[2] = test system: RPE injury by laser photocoagulation in Dutch-belted rabbits; experiment: In vivo laser injury model: retinal immunohistochemistry, quantification of cell proliferation; design: species or system rabbit; settings: for percentage of Ki67+ cells in the choroid vs control (in words): 1- or 4-week time points
Method: Following the laser procedure, the eyes were anesthetized once more with topical proparacaine. Povidone-iodine was applied to the conjunctiva or sclera using sterile Q-tips. Either 50 μL of 15 mM LATS kinase inhibitor (LKI), or vehicle control, was injected per eye using 1 mL Luer-lock syringe with a 27G 1½ inch needle. The second generation LKI, TDI-011536, was used as a micro-suspension formulation prepared in phosphate buffer solution (PBS; Sigma) supplemented with 0.5% carboxymethyl cellulose (Sigma) and 0.5% Kolliphor P 188 Bio (BASF Pharma). Intravitreal injections containing LKI were administered in the right eye and control injections were administered in the left eye. Injections were administered 1-2 mm posterior to the superotemporal or superonasal limbus and delivery of each compound was confirmed on indirect ophthalmoscopy.
Eyes used for immunofluorescence staining were processed according to a previously described protocol. Briefly, eyes were immediately placed in 50 mL 4% PFA in PBS on ice. After 15 minutes, eyes were removed from 4% PFA in PBS and the cornea and iris were removed under a dissecting microscope. With the cornea and iris removed, eyes were placed back in 50 mL 4% PFA and agitated overnight at 4° C. The following morning, the lens was removed. Eyes were then placed in 50 mL of 30% sucrose in PBS at 4° C. for cryoprotection. Once cryoprotection was complete, eyes were removed from 30% sucrose solution and embedded in optimal cutting temperature (OCT) compound.
Following embedding, eyes were mounted on a Leica cryostat (Leica Microsystems, Wetzlar, Germany) for sectioning. All retinal sections were 14 μm thickness and attached to a glass slide. A list of materials used can be found in Table 1.
To quantify RPE proliferation at the site of laser injury in vivo, regions 400 μm in width were centered on the outer nuclear layer (ONL) defect. Laser spots with ONL defects <30 μm in diameter, retinal detachments >225 μm, or an adjacent laser spot <200 μm away from the center of the ONL defect were excluded from analysis. Additionally, laser spots with significant tissue folding or tears were excluded. RPE cross-sectional area in μm^2 was obtained using the Wand Tool in QuPath using the RPE65 channel. RPE proliferation was quantified as the number of Ki67+ cells divided by DAPI+ cells within the RPE layer, expressed as a percentage. Choroidal proliferation was quantified as the number of Ki67+ cells divided by DAPI+ cells in the choroid.
To evaluate the effect of LKI on Müller glia at the site of injury, glial cell proliferation was quantified as the number of Ki67/Sox2 doubly positive cells divided by total number of Sox2/DAPI doubly positive cells within the 400 μm laser region, expressed as a percentage.
To evaluate the effect of LKI in undamaged retina, regions 400 μm in width in the peripheral retina were analyzed. The percentages of Ki67+ cells in the RPE layer, Ki67/Sox2 doubly positive cells, and Ki67+ cells in the choroid in unaffected regions were calculated in an identical fashion.
To further evaluate the effect of Lats kinase inhibition on the RPE injury response in vivo, eyes injected with LKI (n=9 eyes) or vehicle (n=8 eyes) from three independent experiments were cryosectioned and immunolabeled with Ki-67, a marker of cell proliferation. Additionally, sections were labeled with RPE65 to visualize RPE, Sox2 to visualize Müller glia, and Dapi to label all cell nuclei. […] RPE cross-sectional area was 14129±5605 μm^2 in LKI laser spots and 6221±914.2 μm^2 in control laser spots (P<0.0001). RPE maximal thickness was 56.36±19.23 μm in LKI laser spots and 23.08±8.46 μm in control laser spots (P<0.0001). Within the RPE layer, there was a significant increase in Ki67+ cells with LKI compared to the control (FIG. 5A, 5D). The percentage of Ki67+ RPE was 8.75±4.22% in LKI laser spots and 1.55±3.21% in control laser spots (P<0.001). […]

[3] = laser spots, 1 week, intravitreal 50 μL of 15 mM, mean±SD
[4] = laser spots, 1 week, listed as LKI

O=C(/N=c1\scc(CO)n1Cc1ccccc1)c1c[nH]c2ncccc12 [TDI-011536]
EdU/PAX6 doubly positive cells in the scratch site, LKI vs control (in words) ([1]; 96 hours post-scratch): no significant difference | EdU+ cells within the original scratch site that expressed PAX6 ([1]; 96 hours post-scratch, scratch site): 99.67±1.46% | expression of early and late markers of RPE differentiation (in words) ([1]; in vitro injury model, after exposure): nearly all RPE cells expressed both early and late markers of RPE differentiation | Ki67+ (Sox2/Ki67 doubly positive) Müller glia in undamaged regions (outside of laser spots) ([2]; 1 week, listed as LKI): no Sox2/Ki67++ cells | Ki67+ cells within the RPE layer in undamaged regions (outside of laser spots) ([2]; 1 week, listed as LKI): no Ki67+ RPE cells | Ki67+ (Sox2/Ki67 doubly positive) Müller glia in undamaged regions ([2]; 4 weeks, listed as LKI): no Sox2/Ki67++ cells | Ki67+ cells within the RPE layer in undamaged regions ([2]; 4 weeks, listed as LKI): no Ki67+ RPE cells | percentage of Ki67+ cells in the choroid vs control (in words) ([2]; laser regions): no significant difference | RPE cross-sectional area [2, 3]: 14129±5605 μm^2 | RPE maximal thickness [2, 3]: 56.36±19.23 μm | Ki67+ Sox2+ cells (Müller glia) compared to control (in words) [2, 4]: Sox2+ and Ki67+Müller glia were observed; also recorded: significantly in increased | RPE cross-sectional area compared to control (in words) [2, 4]: increase in underlying RPE cross-sectional area; also recorded: significantly increased | percentage of Ki67+ RPE cells compared to control (in words) [2, 4]: increase; also recorded: significantly increased | Ki67+ cells within the choroid ([2]; laser spots, 1 week, mean±SD): 6.66±5.37% | percentage of Ki67+ RPE (Ki67+ cells within the RPE layer) ([2]; laser spots, 1 week, mean±SD): 8.75±4.22% | percentage of Ki67+ Sox2+ cells (Müller glia) ([2]; laser spots, 1 week, mean±SD): 11.00±5.11% | Ki67+ Sox2+ cells (Müller glia) compared to control (in words) ([2]; laser spots, 4 weeks): no significant difference | RPE maximal thickness compared to control (in words) ([2]; laser spots, 4 weeks): increase in underlying RPE cross-sectional area and maximal thickness | percentage of Ki67+ RPE cells compared to control (in words) ([2]; laser spots, 4 weeks): no significant difference | RPE cross-sectional area ([2]; laser spots, 4 weeks, intravitreal 50 μL of 15 mM, mean±SD): 15800 ± 6530 µm² | RPE cross-sectional area compared to control (in words) ([2]; laser spots, 4 weeks, listed as LKI): increase in RPE cross-sectional area; also recorded: significantly increased | Ki67+ cells within the choroid ([2]; laser spots, 4 weeks, mean±SD): 0.39±0.71% | percentage of Ki67+ RPE (Ki67+ cells within the RPE layer) ([2]; laser spots, 4 weeks, mean±SD): 0.29±0.90% | percentage of Ki67+ Sox2+ cells (Müller glia) ([2]; laser spots, 4 weeks, mean±SD): 1.23±3.25% | overall effect of intravitreal LKI microsuspension in the laser injury model (in words) ([2]; rabbits, intravitreal 50 μL of 15 mM microsuspension): extensive RPE proliferation and wound healing without measurable effects on off-target cell types or uninjured regions | percentage of Ki67+ cells in the choroid vs control (in words) ([2]; undamaged regions): no significant difference
